Data published in patent US20140038959A1, “METHODS OF TREATING TUMORS” (Genentech, Inc., priority 2011, published 2014).
Like-named read-outs stand apart in the source and are kept apart here. Numbered stars: 1 amine (or outer) side, 2 acyl side, 3 side chain; on linkers, the order of the positions; unused ones are H or OH. Bridge positions count the residues as written; N and C are the ends. Square brackets hold non-standard residues; d marks the D form. Peptide text beside a SMILES is read from it. I, II: the chains in the order shown. Hexamethylenediamine = C(CCCN[*:2])CCN[*:1]; Dip = N[C@H](C(=O)O)C(c1ccccc1)c1ccccc1; Chg = N[C@H](C(=O)O)C1CCCCC1; NMeA = CN[C@@H](C)C(=O)O

How the values were obtained:
EBC1-shPAK1 cells = experiment: pharmarray viability screen, 200 compound library, with or without PAK1 knockdown (CellTiter-Glo); assay type: cell-based, human; settings: for EC50: Homo sapiens
SK-MES-1 = experiment: Cell Titer Glo viability after PAK1 siRNA and BV6; assay type: cell-based, human; settings: transient PAK1 siRNA followed by 5 μM BV6
Method: (§1) FIG. 7—(A) Combinatorial accumulation of cleaved PARP and caspase-3 by PAK1 and IAP antagonism. Cells were incubated with Dox and […] for indicated time points, lysed and then used for Western blot analysis (B) Dual PAK1 and IAP inhibition results in a synergistic decrease in viability of SK-MES-1 (squamous subtype) and NCI-H441 (adenocarcinoma subtype) NSCLC cells. Cellular ATP consumption was determined via Cell Titer Glo assay following transient siRNA-mediated inhibition of PAK1 and 5 μM BV6 treatment as indicated.
(§2) The prosurvival activity of IAP proteins is antagonized by the second mitochondrial activator of caspases (SMAC) (C. Du et al., Cell 2000 102:33-42; A. M. Verhagen, et al. Cell 2000 102:43-53) and a number of antagonists have been described that mimic SMAC amino-terminal peptides to disrupt the association of IAP with SMAC and activated caspase-9 (K. Zobel et al., ACS Chem. Biol. 2006 1:525-533; E. Varfolomeev et al., Cell 2007 131:669-681). In particular, BV6 (C. Ndubaku et al., Future Med. Chem. 2009 1(8):1509) represents one such class of small molecule antagonist that binds to baculovirus TAP repeat (BIR) domains and promotes rapid auto-ubiquitination and proteasomal degradation of c-TAP 1 and cIAP-2 (Zobel supra). […]

NCI-H441 = experiment: Cell Titer Glo viability after PAK1 siRNA and BV6; assay type: cell-based, human; settings: transient PAK1 siRNA followed by 5 μM BV6
Method: as §1, §2

[1] = tested on: SKMES-1, Calu-6, Cal-120 cells; experiment: CellTiter-Glo viability after PAK1 and PAK2 siRNA plus MEK and PI3K inhibitors; assay type: cell-based, human; settings: with PAK1 and PAK2 siRNA, 3 days
Method: FIG. 11—Combinatorial effect of PAK1, PAK2, MEK and PI3K inhibition on tumor cell viability. CellTiter-Glo® (CTG) assays of cellular viability were performed following PAK1 and PAK2 siRNA transfection and compound treatment for 3 days, as indicated.
Taken together, these studies provide strong preclinical support that breast and NSCLC may provide several opportunities for rational combination therapies with PAK1 inhibitors. In one embodiment of the present invention there is provided a method of treating tumors comprising contacting the tumor with a PAK 1 inhibitor and a second anti-hyperproliferative compound.

MDA-MB-175 cells = experiment: Annexin V/PI fluorescence-activated cell sorting after IPA-3 for 48 h; assay type: cell-based, human
Description: FIG. 1-Analysis of PAK1 genomic amplification and functional role in human breast tumors. (A) Genomic Identification of Significant Targets in Cancer (GISTIC) analysis of 11q13 copy number gains. Points are proportionately spaced and arranged in genome order. Vertical line represents chromosome location of the PAK1 gene. […] (B) PAK1 DNA copy and mRNA expression dot plot depicts the relationship of DNA copy number to the 226507 at Affymetrix MAS 5.0 signal for 51 tumor samples. The Pearson correlation statistic (0.75) is shown for the plot. The solid line represents the best-fit line through these points. (C) Increasing proportion of Annexin V-positive cells following knockdown of PAK1 expression is shown for 3 breast cancer cell lines with focal PAK1 genomic amplification, MDA-MB-175, HCC1500 and MDA-MB-134 IV. Cells were harvested 3-5 days following transient transfection of pooled siRNA oligonucleotides. (D) Fluorescence-activated cell sorting analysis for Annexin V/PI. MDA-MB-175 cells were cultured in the presence or absence of IPA-3 for 48 h. Annexin V/PI staining was then done to assess apoptosis/necrosis. […]
To ascertain the role of PAK1 in cell survival, the quantity of cytoplasmic histone-associated DNA fragments was quantified using the Cell Death Detection ELISA Plus kit from Roche (Mannheim, Germany). […]

EBC-1 cells [2] = experiment: cell killing by pharmacological PAK or Rac1 inhibitors combined with IAP inhibition; assay type: cell-based, human; settings: pharmacological inhibitors of PAK or Rac1 catalytic activity; FIG. 7A
Description: The prosurvival activity of IAP proteins is antagonized by the second mitochondrial activator of caspases (SMAC) (C. Du et al., Cell 2000 102:33-42; A. M. Verhagen, et al. Cell 2000 102:43-53) and a number of antagonists have been described that mimic SMAC amino-terminal peptides to disrupt the association of IAP with SMAC and activated caspase-9 (K. Zobel et al., ACS Chem. Biol. 2006 1:525-533; E. Varfolomeev et al., Cell 2007 131:669-681). In particular, BV6 (C. Ndubaku et al., Future Med. Chem. 2009 1(8):1509) represents one such class of small molecule antagonist that binds to baculovirus TAP repeat (BIR) domains and promotes rapid auto-ubiquitination and proteasomal degradation of c-TAP 1 and cIAP-2 (Zobel supra). Consistent with the small molecule screening data, strong combinatorial activity was confirmed for dual inhibition of PAK1 and IAP in EBC-1 cells (FIG. 5A). […] To further explore this apparent synergy we investigated possible molecular mechanisms of PAK1 and IAP inhibition on the induction of apoptosis. […] Lastly, additional NSCLC cell lines, including those that are only minimally responsive to the activity of either single agent, were examined for anti-tumor efficacy resulting from combined inhibition of PAK1 and IAP.

EBC-1 cells [3] = experiment: PF-3758309 with BV6, in vitro combination efficacy, 4-day CellTiterGlo viability assay (Calcusyn); assay type: cell-based, human; settings: Chou and Talalay method, CI ≦0.3 = strong synergy
Method: FIG. 10—Combination of ATP-competitive pan-PAK inhibitor PF-3758309 (B. W. Murray et al. Proc. Nat. Acad. Sci. USA 2010 107(20):9446-9471 and IAP small molecule antagonist results in apoptosis of squamous NSCLC cells. (A) Catalytic inhibition of PAK1 via PF-3758309 treatment was tested with BV6 for in vitro combination efficacy in EBC-1 cells using a 4-day CellTiterGlo viability assay. Calcusyn, a program utilizing the Chou and Talalay (Chou T C, Talalay P. Quantitative analysis of dose-effect relationships: the combined effects of multiple drugs or enzyme inhibitors. Adv. Enzyme Regul. 1984; 22:27-55) method of calculating synergy, was used to calculate the combination index and, thus, determine the level of synergy. Strong synergy, as indicated by combination index (CI) values ≦0.3, was observed (CI=0.113).
A determination of a synergistic interaction between a PAK1 inhibitor and a second anti-hyperproliferative agent may be based on the results obtained from the assays described herein. The combinations provided by this invention have been evaluated in several assay systems, and the data can be analyzed utilizing a standard program for quantifying synergism, additivism, and antagonism among anticancer agents. The program preferably utilized is that described by Chou and Talalay, in “New Avenues in Developmental Cancer Chemotherapy,” Academic Press, 1987, Chapter 2. […]

[4] = tested on: Cells transfected with XIAP-specific siRNA; experiment: Cell Titer Glo viability after XIAP siRNA and PAK SMI; assay type: cell-based; settings: XIAP siRNA 48 h, then PAK SMI 72 h; p<0.0001
Method: Cells were transfected with non-targeting control (NTC) or XIAP-specific siRNA oligonucleotides for 48 h prior to treatment with DMSO or PAK SMI as indicated for an additional 72 h. Cell viability was determined via Cell Titer Glo assay and results represent mean±standard deviation from three experiments. (B) Combined antagonism of XIAP and PAK1 promotes efficient cleavage of PARP and caspase-3. XIAP siRNA oligonucleotides were transfected for 72 h prior to treatment with DMSO or […] PAK SMI.

[5] = single agent vs combination with PAK1 knockdown
[6] = 72 h, read-out: Single agent EC50
[7] = EBC-1-shPAK1 cells without PAK1 knockdown, 72 hr compound treatment, read-out: Single agent EC50
[8] = PAK1 knockdown shRNA (300 ng/mL doxycycline 3 days prior) and compound, 72 hr, read-out: Combo PAKi EC50

Structure (SMILES): O=c1[nH]c2ccccc2n1C1CCN(Cc2ccc(-c3nc4cc5[nH]cnc5cc4nc3-c3ccccc3)cc2)CC1 [Akt inhibitor VIII]
- Fold change in EC50 (EBC1-shPAK1 cells; [5]): 1.58

Structure (SMILES): CN[C@@H](C)C(=O)N[C@H](C(=O)N1CCC[C@H]1C(=O)N[C@H](C(=O)NCCCCCCNC(=O)[C@@H](NC(=O)[C@@H]1CCCN1C(=O)[C@@H](NC(=O)[C@H](C)NC)C1CCCCC1)C(c1ccccc1)c1ccccc1)C(c1ccccc1)c1ccccc1)C1CCCCC1 [BV6] (I: H-[NMeA][Chg]P[Dip] / II: H-[NMeA][Chg]P[Dip]; linker I:C-II:C via Hexamethylenediamine)
- Fold change in EC50 (EBC1-shPAK1 cells; [5]): 57.54
- cell viability (SK-MES-1): significant reduction
- cell viability (NCI-H441): significant reduction

Structure (SMILES): CS(=O)(=O)N1CCN(Cc2cc3nc(-c4cccc5[nH]ncc45)nc(N4CCOCC4)c3s2)CC1 [GDC-0941]
- combinatorial efficacy, reduced cellular viability [1]: Combinatorial efficacy

Structure (SMILES): Oc1ccc2ccccc2c1SSc1c(O)ccc2ccccc12 [IPA-3]
- induction of apoptosis, fold increase (Annexin-V/propidium iodide) (MDA-MB-175 cells): 7 fold
- cell killing combined with IAP inhibition (EBC-1 cells [2]): enhanced cell killing

Structure (SMILES): CCN(CC)CCCC(C)Nc1nc(C)cc(Nc2ccc3nc(C)cc(N)c3c2)n1 (stereo not drawn) [NSC23766]
- cell killing combined with IAP inhibition (EBC-1 cells [2]): enhanced cell killing

Structure (SMILES): Cc1nc(Nc2n[nH]c3c2CN(C(=O)N[C@H](CN(C)C)c2ccccc2)C3(C)C)c2sccc2n1 [PF-3758309]
- combination index (CI) (EBC-1 cells [3]): 0.113
- cell killing combined with IAP inhibition (EBC-1 cells [2]): enhanced cell killing
- proapoptotic activity with XIAP down-regulation [4]: potentiates the proapoptotic activity

Structure (SMILES): N#CC(=C(/N)Sc1ccccc1N)/C(C#N)=C(\N)Sc1ccccc1N [U0126]
- Fold change in EC50 (EBC1-shPAK1 cells): 8.45
- EC50 (EBC1-shPAK1 cells; [6]): 19.5 µM
- EC50 (EBC1-shPAK1 cells; read-out: Combo PAKi EC50): 2.3 µM

Structure (SMILES): COc1cc2c(Nc3ccc(Br)cc3F)ncnc2cc1OCC1CCN(C)CC1 [ZD6474]
- EC50 (EBC1-shPAK1 cells; [7]): ≥ 20 µM
- EC50 (EBC1-shPAK1 cells; [8]): 6.88 µM
- Fold change in EC50 (EBC1-shPAK1 cells; [5]): 2.91

Structure (SMILES): CN(C)c1nc(N(C)C)nc(N(C)C)n1 [altretamine]
- EC50 (EBC1-shPAK1 cells; [7]): ≥ 20 µM
- EC50 (EBC1-shPAK1 cells; [8]): 3.94 µM
- Fold change in EC50 (EBC1-shPAK1 cells; [5]): 5.07

Structure (SMILES): Cc1nc(Nc2ncc(C(=O)Nc3c(C)cccc3Cl)s2)cc(N2CCN(CCO)CC2)n1 [dasatinib]
- EC50 (EBC1-shPAK1 cells; [7]): 8.29 µM
- EC50 (EBC1-shPAK1 cells; [8]): 1.53 µM
- Fold change in EC50 (EBC1-shPAK1 cells; [5]): 5.43

Structure (SMILES): C#Cc1cccc(Nc2ncnc3cc(OCCOC)c(OCCOC)cc23)c1 [erlotinib]
- Fold change in EC50 (EBC1-shPAK1 cells): 15.02
- EC50 (EBC1-shPAK1 cells; [6]): ≥ 20 µM
- EC50 (EBC1-shPAK1 cells; read-out: Combo PAKi EC50): 1.56 µM

Structure (SMILES): CS(=O)(=O)CCNCc1ccc(-c2ccc3ncnc(Nc4ccc(OCc5cccc(F)c5)c(Cl)c4)c3c2)o1 [lapatinib]
- EC50 (EBC1-shPAK1 cells; [7]): 6.31 µM
- EC50 (EBC1-shPAK1 cells; [8]): 0.86 µM
- Fold change in EC50 (EBC1-shPAK1 cells; [5]): 7.34

Structure (SMILES): O=C1[O][Pt]2([NH][C@@H]3CCCC[C@H]3[NH]2)[O]C1=O [oxaliplatin]
- Fold change in EC50 (EBC1-shPAK1 cells): 4.23
